Laboratory results reported in patent publication US11147272B2, “Pyridone compounds and agricultural and horticultural fungicides comprising the same as active ingredients” (MITSUI CHEMICALS AGRO, INC., priority 2017, dated 2021).

Tests used:
Plasmopara viticola = assay: Test Example G: Downy mildew on vine; settings: for Test G control value: 7 to 10 days after inoculation; for Test G control value class: Downy mildew on vine (Neomuscat), 2.5 ml/pot, assessed 7 to 10 days after inoculation
Botrytis cinerea = assay: Test Example B: Gray mold on tomato; settings: for Test B control value class: class of control value
Puccinia recondita = assay: Test Example E: Brown rust on wheat; assay type: in vivo; settings: for Test E control value class: class of control value
Phytophthora infestans = assay: whole plant or invertebrate; assay type: in vivo; settings: for Test F control value class: class of control value
[1] = tested on: Blumeria graminis f. sp. hordei; assay: Test Example D: Powdery mildew on barley; settings: for Test D control value class: class of control value
[2] = tested on: Colletotrichum orbiculare; assay: Test Example H: Anthracnose on cucumber; settings: for Test H control value: 6 to 10 days after inoculation; for Test H control value class: Anthracnose on cucumber (Sagami Hanjiro), 2.5 ml/pot, assessed 6 to 10 days after inoculation
Alternaia brassicicola = assay: Test Example C: Alternaria sooty spot on cabbage; assay type: in vivo; settings: for Test C control value class: class of control value
Source text: Seeds of a test plant (cabbage variety: Shikidori) were planted and cultivated until the cotyledons extended.
<Control Value> Control value=100{1−(n/3)}

Magnaporthe grisea = assay: whole plant or invertebrate; assay type: in vivo; settings: for Test A control value class: class of control value
[3] = 250 ppm drug solution sprayed (2.5 ml/pot), grape Neomuscat
[4] = 250 ppm drug solution sprayed on test plant
[5] = 250 ppm drug solution sprayed (2.5 ml/pot), cucumber Sagami Hanjiro
[6] = Downy mildew on vine, 250 ppm spray
[7] = Gray mold on tomato, control value class
[8] = Brown rust on wheat, control value class
[9] = Late blight on tomato, control value class
[10] = Powdery mildew on barley, control value class
[11] = Anthracnose on cucumber, 250 ppm spray
[12] = Alternaria sooty spot on cabbage, control value class
[13] = Blast on rice, control value class
[14] = Alternaria sooty spot on cabbage

Row | Structure (SMILES) | Test G control value (Plasmopara viticola; [3]) | Test B control value (Botrytis cinerea; [4]) | Test E control value (Puccinia recondita; [4]) | Test F control value (Phytophthora infestans; [4]) | Test D control value [1, 4] | Test H control value [2, 5] | Test C control value (Alternaia brassicicola; [4]) | Test A control value (Magnaporthe grisea; [4]) | also measured
1 | CCCc1cc(Br)c(=O)n(CCC)c1-c1c(F)cc(F)cc1F [compound 440] | L (50% or less control value) | L (50% or less control value) | L (50% or less control value) | L (50% or less control value) | L (50% or less control value) | L (50% or less control value) | L (50% or less control value) | H (more than 50% control value) | 
2 | CCCc1ccc(=O)n(CC(F)F)c1-c1c(F)cccc1F [compound 491] | L (50% or less control value) | H (more than 50% control value) | H (more than 50% control value) | L (50% or less control value) | H (more than 50% control value) | L (50% or less control value) | H (more than 50% control value) | L (50% or less control value) | 
3 | CCC1=C(c2ccc(F)cc2Cl)N(C)C(=S)CC1 [compound 313] |  |  |  |  |  |  |  |  | Test G control value (Plasmopara viticola; [6]): H (more than 50% control value); Test B control value (Botrytis cinerea; [7]): L (50% or less control value); Test E control value (Puccinia recondita; [8]): L (50% or less control value); Test F control value (Phytophthora infestans; [9]): L (50% or less control value); Test D control value [1, 10]: L (50% or less control value); Test H control value [2, 11]: L (50% or less control value); Test C control value (Alternaia brassicicola; [12]): L (50% or less control value); Test A control value (Magnaporthe grisea; [13]): L (50% or less control value)
4 | CCn1c(-c2c(F)cc(F)cc2F)c(CC(C)C)cc(Cl)c1=O [compound 41] |  |  |  |  |  |  |  |  | Test G control value class (Plasmopara viticola; 250 ppm spray): H (more than 50% control value); Test B control value class (Botrytis cinerea; Gray mold on tomato): H (more than 50% control value); Test E control value class (Puccinia recondita; Brown rust on wheat): H (more than 50% control value); Test F control value class (Phytophthora infestans; Late blight on tomato): L (50% or less control value); Test D control value class ([1]; Powdery mildew on barley): H (more than 50% control value); Test H control value class ([2]; 250 ppm spray): H (more than 50% control value); Test C control value class (Alternaia brassicicola; [14]): H (more than 50% control value); Test A control value class (Magnaporthe grisea; Blast on rice): H (more than 50% control value)
5 | CCn1c(-c2c(F)cccc2F)c(C=O)ccc1=O [compound 510] | L (50% or less control value) | L (50% or less control value) | L (50% or less control value) | L (50% or less control value) | L (50% or less control value) | L (50% or less control value) | L (50% or less control value) | H (more than 50% control value) | 
6 | CCc1cc(Br)c(=O)n(C)c1-c1ccc(OC)cc1Cl [compound 325] |  |  |  |  |  |  |  |  | Test G control value (Plasmopara viticola; [6]): H (more than 50% control value); Test B control value (Botrytis cinerea; [7]): H (more than 50% control value); Test E control value (Puccinia recondita; [8]): H (more than 50% control value); Test F control value (Phytophthora infestans; [9]): L (50% or less control value); Test D control value [1, 10]: L (50% or less control value); Test H control value [2, 11]: H (more than 50% control value); Test C control value (Alternaia brassicicola; [12]): H (more than 50% control value); Test A control value (Magnaporthe grisea; [13]): L (50% or less control value)
7 | CCCc1ccc(=O)n(CC)c1-c1c(F)cc(OC)cc1F [compound 383] | H (more than 50% control value) | H (more than 50% control value) | H (more than 50% control value) | L (50% or less control value) | H (more than 50% control value) | H (more than 50% control value) | H (more than 50% control value) | H (more than 50% control value) | 
8 | CC(C)Cc1cc(Br)c(=O)n(C)c1-c1ccc(F)cc1 [compound 156] |  |  |  |  |  |  |  |  | Test G control value class (Plasmopara viticola; 250 ppm spray): L (50% or less control value); Test B control value class (Botrytis cinerea; Gray mold on tomato): H (more than 50% control value); Test E control value class (Puccinia recondita; Brown rust on wheat): H (more than 50% control value); Test F control value class (Phytophthora infestans; Late blight on tomato): L (50% or less control value); Test D control value class ([1]; Powdery mildew on barley): H (more than 50% control value); Test H control value class ([2]; 250 ppm spray): L (50% or less control value); Test C control value class (Alternaia brassicicola; [14]): H (more than 50% control value); Test A control value class (Magnaporthe grisea; Blast on rice): H (more than 50% control value)
9 | CCc1cc(Br)c(=O)n(C)c1-c1ccc(OC)cc1C [compound 375] | H (more than 50% control value) | H (more than 50% control value) | H (more than 50% control value) | H (more than 50% control value) | H (more than 50% control value) | L (50% or less control value) | H (more than 50% control value) | L (50% or less control value) | 
10 | CCC(C)c1cc(Cl)c(=O)n(CC)c1-c1c(F)cc(OC)cc1F (stereo not drawn) [compound 35] |  |  |  |  |  |  |  |  | Test G control value class (Plasmopara viticola; 250 ppm spray): L (50% or less control value); Test B control value class (Botrytis cinerea; Gray mold on tomato): H (more than 50% control value); Test E control value class (Puccinia recondita; Brown rust on wheat): H (more than 50% control value); Test F control value class (Phytophthora infestans; Late blight on tomato): L (50% or less control value); Test D control value class ([1]; Powdery mildew on barley): H (more than 50% control value); Test H control value class ([2]; 250 ppm spray): H (more than 50% control value); Test C control value class (Alternaia brassicicola; [14]): H (more than 50% control value); Test A control value class (Magnaporthe grisea; Blast on rice): H (more than 50% control value)
11 | CCC1=C(c2c(F)cc(F)cc2F)N(CC)C(=O)CC1 [compound 373] | L (50% or less control value) | L (50% or less control value) | L (50% or less control value) | L (50% or less control value) | L (50% or less control value) | H (more than 50% control value) | H (more than 50% control value) | L (50% or less control value) | 
12 | CCn1c(-c2c(F)cc(F)cc2F)c(C(C)OC)cc(Cl)c1=O (stereo not drawn) [compound 519] | H (more than 50% control value) | H (more than 50% control value) | H (more than 50% control value) | L (50% or less control value) |  | H (more than 50% control value) | H (more than 50% control value) | H (more than 50% control value) | 
13 | C=Cc1cc(Cl)c(=O)n(CC)c1-c1c(F)cc(F)cc1F [compound 517] | H (more than 50% control value) |  |  | L (50% or less control value) |  | H (more than 50% control value) | H (more than 50% control value) | L (50% or less control value) | 
14 | CCCc1ccc(=O)n(C)c1-c1ccc(OC)cc1C [compound 425] | L (50% or less control value) |  |  | L (50% or less control value) |  | H (more than 50% control value) | L (50% or less control value) | H (more than 50% control value) | 
